Structures are written as SMILES.

The assay deals with HIV. Put plainly: MT4 assay: antiviral HIV activity (cell protection, cell titer glo readout at 96 hours). The conditions noted are these: Human immunodeficiency virus 1, MT4, 96 h, MT4 cells, cell titer glo readout at 96 hours, 10 point dose response; read-out: HIV MT4 Assay IC50. It counts as cell-based. In a few lines:
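MT-4 cells infected with HIV, with inhibition readout by CellTiter-Glo luminescence at 96 h relative to no-compound control. Cytotoxicity measured in parallel under the same conditions. IC50 from a 10-point, 3-4-fold dilution series spanning >1000-fold, fitted with a four-parameter logistic equation.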
Take `Cc1nc2c(cc(-c3ccnc(N4CC5CN(C6COC6)CC5C4)c3)n2C)c(-c2cc(F)c3c(c2C)CCCO3)c1[C@H](OC(C)(C)C)C(=O)O` (stereo partly drawn) [Example 121]: the IC50 came to 15 nM.

On to `Cc1nc2c(cc(-c3ccnc(N4CCN5CCC4C5)c3)n2C)c(-c2cc(F)c3c(c2C)CCCO3)c1[C@H](OC(C)(C)C)C(=O)O` (stereo partly drawn) [Example 123], for which the IC50 was determined as 164 nM. The figure for `Cc1nc2c(cc(-c3ccnc(N4CCCN5CCCC5C4)c3)n2C)c(-c2cc(F)c3c(c2C)CCCO3)c1[C@H](OC(C)(C)C)C(=O)O` (stereo partly drawn) [Example 124] is 32.5 nM.

For the molecule `Cc1nc2c(cc(-c3ccnc(N4CCCN(C5CCOC5)CC4)c3)n2C)c(-c2cc(F)c3c(c2C)CCCO3)c1[C@H](OC(C)(C)C)C(=O)O` (stereo partly drawn) [Example 126], the IC50 came to 22.5 nM. The figure for `Cc1nc2c(cc(-c3cncc(-c4ccc5c(cnn5C)c4)c3)n2C)c(-c2cc(F)c3c(c2C)CCCO3)c1[C@H](OC(C)(C)C)C(=O)O` [Example 138] is 1.5 nM; for `Cc1nc2c(cc(-c3cc(-c4ccc5c(cnn5C)c4)ccn3)n2C)c(-c2cc(F)c3c(c2C)CCCO3)c1[C@H](OC(C)(C)C)C(=O)O` [Example 139] it is 2 nM. The figure for `Cc1nc2c(cc(-c3cc(-c4ccc5c(cnn5C)c4)[nH]n3)n2C)c(-c2cc(F)c3c(c2C)CCCO3)c1[C@H](OC(C)(C)C)C(=O)O` [Example 140] is 14.1 nM; for `Cc1nc2c(cc(-c3nc(-c4ccc5c(cnn5C)c4)nn3C)n2C)c(-c2cc(F)c3c(c2C)CCCO3)c1[C@H](OC(C)(C)C)C(=O)O` [Example 141] it is 149 nM; for `Cc1nc2c(cc(-c3cc(-c4ccc5c(cnn5C)c4)ncn3)n2C)c(-c2cc(F)c3c(c2C)CCCO3)c1[C@H](OC(C)(C)C)C(=O)O` [Example 142] it is 1.8 nM. The figure for `Cc1nc2c(cc(-c3cnc(-c4ccc5c(cnn5C)c4)s3)n2C)c(-c2cc(F)c3c(c2C)CCCO3)c1[C@H](OC(C)(C)C)C(=O)O` [Example 143] is 12.5 nM; for `Cc1nc2c(cc(C(=O)N3CCCN(C4COC4)CC3)n2C)c(-c2cc(F)c3c(c2C)CCCO3)c1[C@H](OC(C)(C)C)C(=O)O` [Example 162] it is 3650 nM; for `Cc1nc2c(cc(C(=O)Nc3ccc4c(cnn4C)c3)n2C)c(-c2cc(F)c3c(c2C)CCCO3)c1[C@H](OC(C)(C)C)C(=O)O` [Example 163] it is 43 nM. With `Cc1nc2c(cc(C(=O)N3CCC(Oc4ccc(C#N)cc4)CC3)n2C)c(-c2cc(F)c3c(c2C)CCCO3)c1[C@H](OC(C)(C)C)C(=O)O` [Example 164], the IC50 worked out at 42.2 nM. The result for `Cc1nc2c(cc(C(=O)N3CCC(NC(=O)c4cncn4C)CC3)n2C)c(-c2cc(F)c3c(c2C)CCCO3)c1[C@H](OC(C)(C)C)C(=O)O` [Example 165] reads 50000 nM. The result for `Cc1nc2c(cc(C(=O)N3CCn4cnnc4C3)n2C)c(-c2cc(F)c3c(c2C)CCCO3)c1[C@H](OC(C)(C)C)C(=O)O` [Example 166] reads 50000 nM; that for `Cc1nc2c(cc(C(=O)N3CCc4ccc(S(=O)(=O)NC(C)C)cc4C3)n2C)c(-c2cc(F)c3c(c2C)CCCO3)c1[C@H](OC(C)(C)C)C(=O)O` [Example 167], 357 nM. The result for `Cc1nc2c(cc(CNC(=O)N3CCCN(C4COC4)CC3)n2C)c(-c2cc(F)c3c(c2C)CCCO3)c1[C@H](OC(C)(C)C)C(=O)O` [Example 168] reads 12600 nM; that for `Cc1nc2c(cc(C(=O)N3CCN(c4ccncc4)CC3)n2C)c(-c2cc(F)c3c(c2C)CCCO3)c1[C@H](OC(C)(C)C)C(=O)O` [Example 169], 1240 nM; that for `Cc1nc2c(cc(C(=O)N3CCC(c4ccccc4)CC3)n2C)c(-c2cc(F)c3c(c2C)CCCO3)c1[C@H](OC(C)(C)C)C(=O)O` [Example 170], 4.2 nM. As for `Cc1nc2c(cc(C(=O)N3CCC(c4ccncc4)CC3)n2C)c(-c2cc(F)c3c(c2C)CCCO3)c1[C@H](OC(C)(C)C)C(=O)O` [Example 171], the half-maximal inhibitory concentration (IC50) amounted to 32.6 nM. The result for `Cc1nc2c(cc(C(=O)N3CCN(c4ccccc4)CC3)n2C)c(-c2cc(F)c3c(c2C)CCCO3)c1[C@H](OC(C)(C)C)C(=O)O` [Example 172] reads 5.9 nM; that for `Cc1nc2c(cc(C(=O)N3CCN(C)CC3)n2C)c(-c2cc(F)c3c(c2C)CCCO3)c1[C@H](OC(C)(C)C)C(=O)O` [Example 173], 354 nM; that for `Cc1nc2c(cc(C(=O)N3CCc4ccccc4C3)n2C)c(-c2cc(F)c3c(c2C)CCCO3)c1[C@H](OC(C)(C)C)C(=O)O` [Example 174], 3.6 nM. The result for `Cc1nc2c(cc(C(=O)N3CCC(c4ccc(C#N)cc4)CC3)n2C)c(-c2cc(F)c3c(c2C)CCCO3)c1[C@H](OC(C)(C)C)C(=O)O` [Example 175] reads 4.8 nM; that for `Cc1nc2c(cc(C(=O)N3CCC(C)CC3)n2C)c(-c2cc(F)c3c(c2C)CCCO3)c1[C@H](OC(C)(C)C)C(=O)O` [Example 176], 25.6 nM.

Consider `Cc1nc2c(cc(C(=O)N3CCC(c4cccc(C#N)c4)CC3)n2C)c(-c2cc(F)c3c(c2C)CCCO3)c1[C@H](OC(C)(C)C)C(=O)O` [Example 177], for which the IC50 is 4.7 nM.

As to `Cc1nc2c(cc(C(=O)N3CCC(c4ccc(C(N)=O)cc4)CC3)n2C)c(-c2cc(F)c3c(c2C)CCCO3)c1[C@H](OC(C)(C)C)C(=O)O` [Example 178], the half-maximal inhibitory concentration (IC50) worked out at 176 nM. The figure for `Cc1nc2c(cc(C(=O)N3CCC[C@H]3C(=O)N(C)c3ccc4c(cnn4C)c3)n2C)c(-c2cc(F)c3c(c2C)CCCO3)c1[C@H](OC(C)(C)C)C(=O)O` [Example 179] is 847 nM.

As to `Cc1nc2c(cc(C(=O)N3CCN(S(C)(=O)=O)CC3)n2C)c(-c2cc(F)c3c(c2C)CCCO3)c1[C@H](OC(C)(C)C)C(=O)O` [Example 180], the IC50 came out at 1920 nM. Turning to `Cc1nc2c(cc(C(=O)N3CCC(F)(F)CC3)n2C)c(-c2cc(F)c3c(c2C)CCCO3)c1[C@H](OC(C)(C)C)C(=O)O` [Example 181], the 50% inhibitory concentration (IC50) was 42 nM. `Cc1nc2c(cc(C(=O)N3CCN4CCCC4C3)n2C)c(-c2cc(F)c3c(c2C)CCCO3)c1[C@H](OC(C)(C)C)C(=O)O` (stereo partly drawn) [Example 182]: the IC50 was 131 nM.

For `Cc1nc2c(cc(C(=O)N3CCc4ccccc43)n2C)c(-c2cc(F)c3c(c2C)CCCO3)c1[C@H](OC(C)(C)C)C(=O)O` [Example 183], the IC50 turned out to be 33.9 nM. The result for `Cc1nc2c(cc(C(=O)N3Cc4ccccc4C3)n2C)c(-c2cc(F)c3c(c2C)CCCO3)c1[C@H](OC(C)(C)C)C(=O)O` [Example 184] reads 42 nM; that for `Cc1nc2c(cc(-c3ccn(C4CN(C(=O)OC(C)(C)C)C4)n3)n2C)c(-c2cc(F)c3c(c2C)CCCO3)c1[C@H](OC(C)(C)C)C(=O)O` [Example 185], 32.2 nM.

Regarding `Cc1nc2c(cc(-c3cnn(CC4CN(C(=O)OC(C)(C)C)C4)c3)n2C)c(-c2cc(F)c3c(c2C)CCCO3)c1[C@H](OC(C)(C)C)C(=O)O` [Example 186], the IC50 was 41.1 nM. The result for `Cc1nc2c(cc(-c3ccn(C4CN(C5CCOCC5)C4)n3)n2C)c(-c2cc(F)c3c(c2C)CCCO3)c1[C@H](OC(C)(C)C)C(=O)O` [Example 187] reads 26.5 nM; that for `Cc1nc2c(cc(C(=O)N3C[C@@H]4CC[C@H]3CN(C3COC3)C4)n2C)c(-c2cc(F)c3c(c2C)CCCO3)c1[C@H](OC(C)(C)C)C(=O)O` [Example 188], 86.7 nM; that for `Cc1nc2c(cc(C(=O)N3CC4CN(C5COC5)CC4C3)n2C)c(-c2cc(F)c3c(c2C)CCCO3)c1[C@H](OC(C)(C)C)C(=O)O` (stereo partly drawn) [Example 189], 1190 nM.

For the molecule `Cc1nc2c(cc(C(=O)N[C@H](C)c3ccccc3)n2C)c(-c2cc(F)c3c(c2C)CCCO3)c1[C@H](OC(C)(C)C)C(=O)O` [Example 190], the IC50 was 14.1 nM.

With `Cc1nc2c(cc(C(=O)N3CCC(c4c[nH]c5ccccc45)CC3)n2C)c(-c2cc(F)c3c(c2C)CCCO3)c1[C@H](OC(C)(C)C)C(=O)O` [Example 191], the IC50 is 4.9 nM.

Turning to `Cc1nc2c(cc(C(=O)N(C)Cc3ccccc3)n2C)c(-c2cc(F)c3c(c2C)CCCO3)c1[C@H](OC(C)(C)C)C(=O)O` [Example 192], the IC50 stood at 16.6 nM. Take `Cc1nc2c(cc(C(=O)N3CCC4(CCCC4)CC3)n2C)c(-c2cc(F)c3c(c2C)CCCO3)c1[C@H](OC(C)(C)C)C(=O)O` [Example 193]: the IC50 turned out to be 12.3 nM.

Consider `Cc1nc2c(cc(C(=O)N3CC(c4ccccc4)C3)n2C)c(-c2cc(F)c3c(c2C)CCCO3)c1[C@H](OC(C)(C)C)C(=O)O` [Example 194], for which the IC50 amounted to 1.5 nM. The result for `Cc1nc2c(cc(C(=O)NC(C)(C)c3ccccc3)n2C)c(-c2cc(F)c3c(c2C)CCCO3)c1[C@H](OC(C)(C)C)C(=O)O` [Example 195] reads 26 nM. Take `Cc1nc2c(cc(C(=O)N3CCN(C(C)c4ccccc4)CC3)n2C)c(-c2cc(F)c3c(c2C)CCCO3)c1[C@H](OC(C)(C)C)C(=O)O` (stereo partly drawn) [Example 196]: the IC50 worked out at 12.3 nM.

With `CC(=O)N1CCCN(C(=O)c2cc3c(-c4cc(F)c5c(c4C)CCCO5)c([C@H](OC(C)(C)C)C(=O)O)c(C)nc3n2C)CC1` [Example 197], the IC50 was determined as 6810 nM. The figure for `Cc1nc2c(cc(C(=O)N3CCN(C(=O)OCc4ccccc4)CC3)n2C)c(-c2cc(F)c3c(c2C)CCCO3)c1[C@H](OC(C)(C)C)C(=O)O` [Example 198] is 26.3 nM; for `Cc1nc2c(cc(C(=O)N3CCN(c4ncccn4)CC3)n2C)c(-c2cc(F)c3c(c2C)CCCO3)c1[C@H](OC(C)(C)C)C(=O)O` [Example 199] it is 27.6 nM; for `Cc1nc2c(cc(C(=O)N3CCC4(CC3)CC(Cc3cccnc3)C(=O)O4)n2C)c(-c2cc(F)c3c(c2C)CCCO3)c1[C@H](OC(C)(C)C)C(=O)O` (stereo partly drawn) [Example 200] it is 8050 nM. The result for `Cc1nc2c(cc(C(=O)N3CCN(C(=O)C4CCCCC4)CC3)n2C)c(-c2cc(F)c3c(c2C)CCCO3)c1[C@H](OC(C)(C)C)C(=O)O` [Example 201] reads 65.7 nM.

For the molecule `Cc1nc2c(cc(C(=O)N(CCC(C)C)CCC(C)C)n2C)c(-c2cc(F)c3c(c2C)CCCO3)c1[C@H](OC(C)(C)C)C(=O)O` [Example 202], the IC50 was found to be 92.8 nM.

These data come from patent US20150191469A1, “COMPOUNDS AND METHODS FOR TREATING HIV” (priority 2012, published 2015).
